Assay [1] relates to IL-6. Briefly: IL-6 production of MΦ from JaK3 knock out mice (Example 6). The conditions noted are these: LPS stimulation; 1 mg/ml in city water, 24 days; control knock out mice 962 pg/ml. In kind it is in vivo. The procedure: (§1) A stimulator was added to 1×10^6 MΦ, and the incubation was conducted at 37° C. for 2 days in a CO2 incubator. After centrifugation, the culture supernatant was collected.
The amount of IL-6 was determined using IL-6 dependent mouse hybridoma MH60 cells (J. Eur. Immunol., vol. 18, p. 951, 1988). One hundred microliters of the culture supernatant were added to 100 μl of the MH60 cell suspension adjusted to 1×10^5 cells/ml in a 10% FCS-containing RPMI medium, and the mixed solution was incubated at 37° C. for 2 days in a CO2 incubator. […] Immediately after the dissolution, an absorbance of 570 nm was measured with an immunometer (supplied by Bio-Rad).
Macrophages (MΦ) were prepared from knock out mice deficient in a molecule participating in a signal transduction system from a receptor, and the function of the redox system was analyzed. […]
Peritoneal cells were harvested from three groups of knock out mice, and stimulated with LPS, IL-2, IFNγ and a combination thereof. The NO production, the IL-6 production and the IL-12 production were measured. […] Then, the IL-6 production was analyzed. In LPS stimulation, the amount was detected as 962 pg/ml in the knock out mice derived MΦ culture, 122 pg/ml in the NAC group, and 82 pg/ml in the GSH-OEt group. […]

For assay [2], the system named is reductive glutathione in MΦ. Kind of assay: GSH content in MΦ of JaK3 knock out mice by ACAS after free intake in city water (Example 6). In kind it is in vivo. As to conditions: free intake of city water containing 1 mg/ml, 24 days. How it is done: Three-hundred microliters of a cell suspension adjusted concentration of 3×10^5 cells/ml in an RPMI 1640 medium (phenol red-free) were charged into a chambered coverglass (#136439, supplied by Nunc), and incubated at 37° C. for 2 hours using a CO2 incubator. The culture solution was washed with the medium, and 300 μl of monochlorobimane (supplied by Molecular Plobe) adjusted to 10 μM in the same medium were added thereto. The mixture was charged into a CO2 incubator of 37° C., and the reaction was conducted for 30 minutes. The fluorescent intensity was measured with ACAS. In ACAS, a UV laser was used.
Macrophages (MΦ) were prepared from knock out mice deficient in a molecule participating in a signal transduction system from a receptor, and the function of the redox system was analyzed. […] Methods applied in Example 2 was repeated. JaK3 knock out mice were divided into three groups. A control group was a group of usual city water free-intake. An NAC group was a group of free intake of city water containing 1 mg/ml of NAC. A GSH-OEt group was a group of free intake of city water containing 1 mg/ml of GSH-OEt. […]
Peritoneal cells of knock out mice which had undergone the respective treatments were harvested, and the GSH content in the cells was analyzed using ACAS with MCB. […]

The subject of assay [3] is insulin-non-dependent diabetes mellitus. Kind of assay: Blood sugar level in db/db mice (Example 26). In kind it is in vivo. The conditions noted are these: intraperitoneal, age 4 to 9 weeks, three times per week; at satiation; saline 100. The source says:
db/db mice purchased from Nippon Clair, Co. were naturally mated together. Among the off spring mice, a colony of db/db mice with a high frequency of the spontaneous onset of insulin-non-dependent diabetes mellitus was established. Male db/db mice from the colony were used for the present experiment. Chemical agents were intraperitoneally administered to the db/db mice aged 4 to 9 weeks three times per week, in total 18 times; and based on the level of blood sugar in the mice at satiation, the effects of the chemical agents on the improvement of the diseased conditions of insulin-non-dependent diabetes mellitus were followed once per week. The doses were the same as in Example 24.

In assay [4] the test system is spontaneous onset of insulin-dependent diabetes mellitus. Kind of assay: Onset of diabetes mellitus in NOD mice dosed at age 9 to 11 weeks (Example 25). Type of assay: in vivo. The conditions noted are these: nine times. The text has this:
NOD mice purchased from Nippon Clair, Co. were naturally mated together. Among the off spring mice, a colony of NOD mice with a high frequency of the spontaneous onset of insulin-dependent diabetes mellitus was established. Female NOD mice from the colony were used for the present experiment. Chemical agents were orally or intraperitoneally administered to the NOD mice aged 9 to 11 weeks three times per week, in total nine times; and based on the test results of urine glucose, positive or negative, the onset of diabetes mellitus was followed once per week. Urine glucose was detected, using Uropaper (BM Test Glucose 5000, manufactured by Yamanouchi Pharmaceuticals, Co. Ltd.). The onset was judged on week 22; the doses were the same as in Example 24.

The test system of assay [5] is IL-6. Kind of assay: IL-6 production from macrophages induced through administration (Example 9, Table 1). Type of assay: in vivo, DBA/2 mice. Set-up: concentration or dose not given beside the values. As to conditions: produced spontaneously in the absence of a stimulator. The procedure:
as §1
The amount of IL-6 was determined using IL-6 dependent mouse hybridoma MH60 cells (J. Eur. Immunol., vol. 18, p. 951, 1988). One hundred microliters of the culture supernatant were added to 100 μl of the MH60 cell suspension adjusted to 1×10^5 cells/ml in a 10% FCS-containing RPMI medium, and the mixed solution was incubated at 37° C. for 2 days in a CO2 incubator. Subsequently, 10 μl of MTT (supplied by Sigma Co.) solution adjusted to a concentration of 5 mg/ml in the same medium were added thereto, and the reaction was conducted at 37° C. for 5 hours. After the completion of the reaction, the centrifugation was conducted. The supernatant (160 μl) was removed, and 100 μl of a mixture of hydrochloric acid and propanol were added to the residue. The suspension was conducted using a pipetman to dissolve the cells. Immediately after the dissolution, an absorbance of 570 nm was measured with an immunometer (supplied by Bio-Rad).
This was clarified by harvesting peritoneal exudate cells 20 hours after the completion of the administration, adhering the cells to the plastic surface, then reacting the cells with 10 μM of monochlorobimane at 37° C. for 30 minutes, and analyzing the reaction product with ACAS. The increase in the amounts of oxidative macrophages can easily be determined visually from the fact that almost no reaction product with monochlorobimane is observed, namely, a gray or blue image is provided, and the increase in the amounts of reductive macrophages from the fact that a red or yellow image is provided respectively. […] Meanwhile, the same examination was conducted by harvesting peritoneal exudate cells after 20 hours of the administration of 2 mg of N-acetylcystine (NAC).
Thus, the peritoneal exudate adherent cells were incubated in the following manner, and the amounts of NO and IL-12 produced in the culture supernatant were measured. With respect to the amount of IL-6, the amount of IL-6 produced spontaneously in the absence of a stimulator was measured.
Cells: The peritoneal exudate adherent cells obtained by the stimulation, namely, the macrophages were added to a 96-well microplate in an amount of 1×10^5 cells/200 μl each.
Medium: Phenol red-free RPMI 1640: 200 μl/well

The source of these data is patent US7378387B2, “Method of suppressing immune response by reducing intracellular content of glutathione in macrophages and monocytes” (Ajinomoto Co., Inc., priority 1997, dated 2008).

With `CCOC(=O)CNC(=O)[C@H](CS)NC(=O)CC[C@H](N)C(=O)O` [GSH-OEt, glutathione monoethyl ester], the IL-6 production in assay [1] was 82 pg/mL. Also, the “content of reductive glutathione in MΦ in comparison with control mice” value in assay [2] is “markedly increased”.
As for `CC(=O)N[C@@H](CSSC[C@H](NC(C)=O)C(=O)O)C(=O)O` [(NAC)2, N,N′-diacetylcystine], in assay [3], the “Relative ratio % of blood sugar level, 6 weeks” value was determined as 95%; the “Relative ratio % of blood sugar level, 7 weeks” value was 100%; the “Relative ratio % of blood sugar level, 8 weeks” value is recorded as 98%. The “Frequency (%) of onset of diabetes mellitus” value (“Frequency (%)” below) in assay [4] (route not given, judged on week 22, saline 67) was determined as 60%. For the same molecule, in assay [5], the “IL-6, amount produced relative to that of control group” value (“IL-6, amount produced relative to that” for short) is recorded as 340%.
For `CC(=O)N[C@@H](CS)C(=O)O` [NAC, N-acetylcysteine, reference compound], the “Frequency (%)” value in assay [4] (oral, judged on week 22, doses as in Example 24, saline 67) turned out to be 60%. Further, the “IL-6, amount produced relative to that” value in assay [5] was found to be 42%. The IL-6 production in assay [1] was 122 pg/mL. Further, the “content of reductive glutathione in MΦ in comparison with control mice” value in assay [2] is recorded as “markedly increased”.
As to `COC(=O)[C@H](CSSC[C@H](NC(C)=O)C(=O)OC)NC(C)=O` [(NAC-OMe)2, N,N′-diacetylcystine dimethyl ester], in assay [3], the “Relative ratio % of blood sugar level, 6 weeks” value worked out at 94%; the “Relative ratio % of blood sugar level, 7 weeks” value was determined as 92%; the “Relative ratio % of blood sugar level, 8 weeks” value amounted to 93%. In addition, the “Frequency (%)” value in assay [4] (intraperitoneal, judged on week 22, doses as in Example 24, saline 67) is recorded as 11%. Further, the “IL-6, amount produced relative to that” value in assay [5] was 320%.
